{
  "source": "patent US8476408B2",
  "about": "“Unacylated ghrelin and analogs as therapeutic agents for vascular remodeling in diabetic patients and treatment of cardiovascular disease” (Alize Pharma SAS, priority 2008, dated 2013)",
  "key": {"[1]": {"system": "CAC", "test": "Senescence of CAC recovered from type 2 diabetic patients treated with UAG", "parameters": "species or system human", "details": "12 hours of treatment in vivo, FIG. 2D", "procedure": "All the subjects underwent the following testing session: • UAG (3.0 μg/kg/h iv. as infusion for 12 h from 0 to 12 hours); • isotonic saline (infusion from 0 to 12 hours).\nAll tests were performed starting at 08.30-09.00 a.m. after overnight fasting, 30 minutes after an indwelling catheter had been placed into a forearm vein by slow infusion of isotonic saline. Blood samples were taken at 0 h, 6 h and 12 h.\nCAC Senescence—Senescence was evaluated by acidic β-gal activity on CAC recovered from normal subjects cultured in EGM2 medium for 4 days with UAG or AGE+UAG and saline- or UAG-treated diabetic patients (Ref. 22). Briefly, CAC were washed in phosphate-buffered saline, fixed for 3 min at room temperature in 2% paraformaldehyde, washed, and incubated for24 h at 37° C. with fresh SA-β-gal stain solution: 1 mg/ml 5-bromo-4-chloro-3-indolyl β-D-galactopyranoside (X-gal), 5 mM/liter potassium ferrocyanide, 5 mM/liter ferricyanide, 150 mM/liter NaCl, 2 mM/liter MgCl2, 0.01% sodium deoxycholate, and 0.02% Nonidet P-40. SA-β-gal-positive cells were counted manually by 3 independent investigators."}, "[2]": {"system": "human arteries", "details": "Ref. 35; cited from earlier work"}, "[3]": {"system": "CAC", "test": "Expansion (S phase) of CAC recovered from treated mice", "assay_type": "in vivo", "details": "CAC from UAG-challenged mice, IL-3; FIG. 4C", "procedure": "Flow Cytometry—To analyze CAC cell-cycle progression, cells recovered from diabetic, healthy subjects, NOD/SCID, ob/ob and wt mice, were cultured in EBM-2 supplemented with IL-3 (10 ng/ml), FACS analysis was performed as previously described (Ref. 20). Cell surface molecules were evaluated by flow cytometry as previously described (Ref. 24). Frequency of marker-positive cells is expressed as mean±standard deviation (SD).\nIsolation and Culture of CAC from C57BU6J, C57BL/6J ob/ob mice and NOD/SCID mice—6 weeks old C57BL/6J (wt) and ob/ob mice, 7 and 17 weeks old NOD/SCID mice were purchased from Charles River Lab (Lecco, Italy). Animals were anesthetized by intraperitoneal injection with Avertin (100 mg/50ml ip). Blood samples were drawn from left ventricular, as described by Hoff (Ref. 27). Peripheral blood MNC were isolated by Ficoll density-gradient centrifugation. Recovered cells were washed twice Isolated cells were resuspended and were cultured on 20 μg/ml fibronectin-coated dishes in EGM-2 BulletKit Medium. In selected experiments, the isolated CAC were cultured in EBM-2 medium supplemented with 10 ng/ml of IL-3."}, "[4]": {"system": "CAC", "test": "Detection of ROS in CAC (DCF-DA assay, FACS)", "assay_type": "cell-based, human", "procedure": "Peripheral-blood mononuclear cells (PB-MNC) isolated by Fycoll Histopaque 1077 (Sigma) were resuspended in 20% FBS 199 Medium and plated on fibronectin-coated dishes (Biocoat, Becton Dickinson Labware) as described by Hill et al. (Ref. 19). Human UAG studies were performed on CAC recovered from normal donors and diabetic patients. The purity of sorted cells was assessed by FACS analysis (Ref. 20). For experiments, the isolated CAC were cultured under 5% CO2 at 37° C. for 4 days on 20 μg/ml fibronectin-coated dishes in EGM-2 medium containing 10% FBS, hydrocortisone, human Fibroblast Growth Factor, Vascular Endothelial Growth Factor, Insulin Growth Factor 1, ascorbic acid, human Epidermal Growth Factor, gentamicin and amphotericin-B (Cambrex, Walkersville, Md., USA) alone or in combination with 1 μM UAG and 1.2 mg/ml AGE. In selected experiments, isolated CAC were cultured in EBM-2 medium (Cambrex, Walkersville, Md., USA) supplemented with 10 ng/ml of IL-3. FACS was used to analyze their phenotype (anti-CD45, anti-CD31, anti-CD105, anti-CD14 antibodies were used) (Ref. 22).\nDetection of ROS—DCF-DA (0.5 μM final concentration) was added to CAC in the indicated culture conditions. At the indicated times, the cells were subjected to FACS analysis and processed as previously described (Ret. 22). H2O2 was used as positive control."}, "[5]": {"system": "HIT-T15 β-cells", "test": "Survival of cytokine-treated HIT-T15 β-cells (MTT)", "assay_type": "cell-based", "details": "cytokines (IFN-γ/TNF-α/IL-1β), peptides 1 nM to 100 nM", "procedure": "The survival effect of UAG (6-13) (SEQ ID NO: 6), UAG (8-13) (SEQ ID NO: 7), UAG (8-12) (SEQ ID NO: 8), UAG (8-11) (SEQ ID NO: 12), UAG (9-12) (SEQ ID NO: 9) and UAG (9-11) (SEQ ID NO: 10) was assessed in cytokine-treated HIT-T15 β-cells. […] The protective effects of peptides UAG (8-13) (SEQ ID NO: 7) and UAG (8-12) (SEQ ID NO: 8) were found similar to those of UAG (1-14) (SEQ ID NO: 2) and UAG (1-18) (SEQ ID NO: 3). A peptide made of the inverse sequence of UAG (1-14) (SEQ ID NO: 2) and named UAG (14-1) (SEQ ID NO: 11), was used as negative control for these experiments. […] These effects were however lower than those of UAG (6-13) (SEQ ID NO: 6)."}, "[6]": {"system": "CAC", "test": "CAC mobilization assay in diabetic and control mice", "assay_type": "in vivo", "details": "FIG. 4B", "procedure": "Diabetic and control mice—Mice were divided in four groups. The plasma glucose and insulin determination for each group are reported. Sixteen 6 weeks old ob/ob mice (blood glucose, 600±45 mg/dL, insulin, 5.5±0.9 ng/ml); sixteen C56BL6/J wild type mice (blood glucose, 150±18.2 mg/dL, insulin, 1±0.05 ng/ml); ten 7 weeks old NOD/SCID mice (blood glucose, 164±12.9 mg/dL, insulin 1.2±0.12 ng/ml); ten 17 weeks old NOD/SCID mice (blood glucose, 536±36.3 mg/dL, insulin 4.85±0.74 ng/ml). Animal procedures conformed to the Guide for Care and Use of […] (National Institutes of Health publication no. 93-23, revised 1985).\nIsolation and Culture of CAC from C57BU6J, C57BL/6J ob/ob mice and NOD/SCID mice—6 weeks old C57BL/6J (wt) and ob/ob mice, 7 and 17 weeks old NOD/SCID mice were purchased from Charles River Lab (Lecco, Italy). Animals were anesthetized by intraperitoneal injection with Avertin (100 mg/50ml ip). Blood samples were drawn from left ventricular, as described by Hoff (Ref. 27). Peripheral blood MNC were isolated by Ficoll density-gradient centrifugation. […]\nMobilization assay—Mice were treated for 12 hours with UAG or saline. CAC recovered and purified as above described, were put in culture and counted by three independent investigators. The technical ratio of CAC was calculated by comparing the numbers of CAC/μL of blood drawn from left ventricular."}},
  "note": "Where no end group is shown, it is not given here.",
  "data": [
    {"substance": "1-NH2Gly-Ser-Ser-Phe-Leu-Ser-Pro-Glu-His-Gln-Arg-Val-Gln-Gln-Arg-Lys-Glu-Ser-Lys-Lys-Pro-Pro-Ala-Lys-Leu-Gln-Pro-Arg-28 (GSSFLSPEHQRVQQRKESKKPPAKLQPR; ends and bridges not checked; listed as Homo sapiens) [UAG]", "values": [
      {"measurement": "number of senescent cells", "setting": "[1]", "value": "reduced the number of senescent cells"},
      {"measurement": "vasodilator action", "setting": "[2]", "value": "vasodilator actions"},
      {"measurement": "expansion of recovered CAC", "setting": "[3]", "value": "could be expanded"},
      {"measurement": "level of ROS production in AGE-cultured cells", "setting": "[4]; AGE-cultured CAC, FIG. 1C, 1F", "value": "reduced"},
      {"measurement": "intracellular ROS production in diabetic-recovered cells", "setting": "[4]; CAC isolated from type 2 diabetic patients, FIG. 1D", "value": "reduced intracellular ROS production"},
      {"measurement": "baseline level of ROS production", "setting": "[4]; compared to untreated cells, FIG. 1B, 1E", "value": "drastically reduces the baseline level of ROS production"},
      {"measurement": "survival effect on cytokine-induced cell death", "setting": "[5]", "value": "comparable"},
      {"measurement": "percentage of recovered cells", "setting": "[6]; diabetic NOD/SCID mice", "value": "increase the percentage of recovered cells"},
      {"measurement": "number of recovered cells relative to untreated wild type mice", "setting": "[6]; ob/ob mice", "value": "fully restores the number of CAC to normal physiological levels"}
    ]}
  ]
}
